Numbered stars: 1 amine (or outer) side, 2 acyl side, 3 side chain; on linkers, the order of the positions; unused ones are H or OH. Bridge positions count the residues as written; N and C are the ends. Square brackets hold non-standard residues; d marks the D form. Peptide text beside a SMILES is read from it. * marks the point of attachment. X13 = O=C(O)CN1CCN(CC(=O)O)CCN(CC(=O)N2CCN(Cc3cc(C[*:1])cc(C[*:2])c3)CC2)CCN(CC(=O)O)CC1; X12 = O=C(O)CN1CCN(CC(=O)O)CCN(CC(=O)NCCCOCCOCCOCCCN*)CCN(CC(=O)O)CC1; mXylylene = c1cc(C[*:1])cc(C[*:2])c1; Suc = O=C(CCC(=O)[*:2])[*:1]; Nle = CCCC[C@H](N)C(=O)O; Hexanoyl = CCCCCC(=O)*; Mpa = O=C(O)CCS
Assays:
[1] = 24 h incubation, 37° C.
[2] = Plasma stability assay, mouse plasma; type: in vitro ADME; settings: 37° C.; for remaining at 24 h, 9.8 µM: 24 h incubation
[3] = 24 h incubation, 37° C.; remark: listed apart in the source
[4] = Pharmacokinetic study in mice (plasma, NCA); settings: mouse, intravenous; for Vd: mouse plasma
[5] = Pharmacokinetic study in rats (plasma, NCA); settings: rat, intravenous; for Vd: rat plasma
Human recombinant FAP [6] = target: T1, Human recombinant FAP (Homo sapiens, UniProt Q12884); test: Surface plasmon resonance (Biacore) assay; type: binding
recombinant human PREP = target: T2, recombinant human PREP (Homo sapiens, UniProt P48147); test: PREP protease activity assay; type: biochemical
T2 construct: purchased R&D systems 4308-SE
T2 sequence (P48147 1-710): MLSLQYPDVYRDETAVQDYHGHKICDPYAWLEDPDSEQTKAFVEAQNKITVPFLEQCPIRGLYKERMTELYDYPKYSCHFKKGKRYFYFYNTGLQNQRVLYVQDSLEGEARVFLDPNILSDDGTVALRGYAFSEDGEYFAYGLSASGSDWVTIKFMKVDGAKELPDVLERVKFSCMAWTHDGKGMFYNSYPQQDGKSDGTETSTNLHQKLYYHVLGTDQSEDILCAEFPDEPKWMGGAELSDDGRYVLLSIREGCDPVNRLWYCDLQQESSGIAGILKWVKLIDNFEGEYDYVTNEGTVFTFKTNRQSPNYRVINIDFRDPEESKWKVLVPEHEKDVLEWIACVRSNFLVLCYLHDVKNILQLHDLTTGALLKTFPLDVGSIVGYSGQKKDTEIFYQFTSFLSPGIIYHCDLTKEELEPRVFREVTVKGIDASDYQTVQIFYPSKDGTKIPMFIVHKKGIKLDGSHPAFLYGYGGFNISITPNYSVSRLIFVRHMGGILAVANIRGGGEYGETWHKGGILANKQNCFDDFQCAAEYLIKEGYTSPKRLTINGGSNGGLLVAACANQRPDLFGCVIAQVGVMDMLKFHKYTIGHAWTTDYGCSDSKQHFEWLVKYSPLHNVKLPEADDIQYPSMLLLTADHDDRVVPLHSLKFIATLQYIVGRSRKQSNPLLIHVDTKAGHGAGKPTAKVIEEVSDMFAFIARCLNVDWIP

Human recombinant FAP [7] = target: T1, Human recombinant FAP; test: FRET-based FAP protease activity assay; type: biochemical; set-up: purchased R&D systems 3715-SE
Recombinant human DPP4 = target: T3, Recombinant human DPP4 (Homo sapiens, UniProt P27487); test: DPP4 protease activity assay; type: biochemical
T3 construct: purchased R&D systems 9168-SE

[8] = target: T4, FAP-expressing human WI-38 fibroblasts (Homo sapiens, UniProt Q12884); test: Competitive FACS binding assay
T4 construct: FAP-expressing human WI-38 fibroblasts (ECACC) were cultured in EMEM; host or cells: WI-38 human fibroblasts
Method: Cells were analyzed in an Attune NxT flow cytometer. […] […].
Cells were analyzed in an Attune NxT flow cytometer. […]

[9] = mouse, plasma, read-out: % intact compound remaining after incubation, Mouse plasma
[10] = pIC50 Category (Activity), FRET-based FAP protease activity assay, recombinant human FAP, 37° C.

T3 sequence (P27487 whole entry): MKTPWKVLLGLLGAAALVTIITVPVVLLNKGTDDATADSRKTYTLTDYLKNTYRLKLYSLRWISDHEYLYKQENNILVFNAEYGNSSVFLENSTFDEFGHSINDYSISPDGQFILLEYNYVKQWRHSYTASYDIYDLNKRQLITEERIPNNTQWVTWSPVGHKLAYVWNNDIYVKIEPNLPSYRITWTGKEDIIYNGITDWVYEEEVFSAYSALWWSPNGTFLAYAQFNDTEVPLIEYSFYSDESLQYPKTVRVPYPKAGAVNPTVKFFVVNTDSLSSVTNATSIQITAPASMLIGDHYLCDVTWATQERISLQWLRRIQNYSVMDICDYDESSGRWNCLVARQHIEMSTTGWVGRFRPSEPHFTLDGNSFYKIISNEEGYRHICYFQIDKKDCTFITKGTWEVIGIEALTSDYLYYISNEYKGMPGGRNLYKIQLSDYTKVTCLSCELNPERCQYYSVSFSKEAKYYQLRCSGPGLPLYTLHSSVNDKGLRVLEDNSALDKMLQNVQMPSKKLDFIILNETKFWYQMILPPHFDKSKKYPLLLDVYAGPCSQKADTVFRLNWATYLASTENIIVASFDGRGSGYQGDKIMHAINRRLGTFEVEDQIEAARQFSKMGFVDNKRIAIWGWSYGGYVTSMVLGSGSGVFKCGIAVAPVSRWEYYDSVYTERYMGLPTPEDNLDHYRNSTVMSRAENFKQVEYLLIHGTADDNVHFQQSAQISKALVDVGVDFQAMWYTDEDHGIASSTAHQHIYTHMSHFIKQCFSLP
T4 sequence (Q12884 whole entry): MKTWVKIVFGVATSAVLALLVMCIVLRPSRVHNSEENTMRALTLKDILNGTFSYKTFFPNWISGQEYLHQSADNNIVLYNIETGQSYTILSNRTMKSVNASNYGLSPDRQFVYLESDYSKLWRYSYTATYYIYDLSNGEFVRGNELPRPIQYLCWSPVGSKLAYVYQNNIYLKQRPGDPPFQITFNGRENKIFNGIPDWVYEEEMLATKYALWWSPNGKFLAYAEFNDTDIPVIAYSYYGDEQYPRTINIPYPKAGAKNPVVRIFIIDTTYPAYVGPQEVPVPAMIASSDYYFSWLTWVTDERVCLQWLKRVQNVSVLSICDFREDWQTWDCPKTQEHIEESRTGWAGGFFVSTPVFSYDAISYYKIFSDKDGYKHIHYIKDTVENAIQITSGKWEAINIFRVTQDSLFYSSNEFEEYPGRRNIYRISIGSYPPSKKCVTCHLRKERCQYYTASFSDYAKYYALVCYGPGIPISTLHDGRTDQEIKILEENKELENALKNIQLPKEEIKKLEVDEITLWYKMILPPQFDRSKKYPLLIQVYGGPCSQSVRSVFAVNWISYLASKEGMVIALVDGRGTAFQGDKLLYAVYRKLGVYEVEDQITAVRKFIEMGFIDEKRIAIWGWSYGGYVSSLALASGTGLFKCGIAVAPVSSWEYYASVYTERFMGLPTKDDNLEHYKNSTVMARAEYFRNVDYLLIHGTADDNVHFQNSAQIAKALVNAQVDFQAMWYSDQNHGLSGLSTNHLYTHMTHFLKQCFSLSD
T1 sequence (Q12884 whole entry): as above

Structure (SMILES): CCCCCC(=O)N[C@H]1CSCc2cccc(c2)CSC[C@@H](C(=O)N[C@@H](CCCCNC(=O)CN2CCN(CC(=O)O)CCN(CC(=O)O)CCN(CC(=O)O)CC2)CC(=O)O)NC(=O)[C@H](Cc2ccccc2)NC(=O)[C@H](CCC(N)=O)NC(=O)[C@H]([C@@H](C)O)NC(=O)[C@@H]2CCCN2C(=O)[C@@H]2CCCN2C1=O [3BP-3397, Hex-[Cys(3MeBn)-Pro-Pro-Thr-Gln-Phe-Cys]-Bhk(DOTA)-OH]
- % intact compound remaining after incubation, Human plasma [1]: 100% (24 h)

Structure (SMILES): CCCCCC(=O)N[C@H]1CSCc2cc(cc(CN3CCN(C(=O)CN4CCN(CC(=O)O)CCN(CC(=O)O)CCN(CC(=O)O)CC4)CC3)c2)CSC[C@@H](C(=O)N[C@@H](CC(=O)O)C(N)=O)NC(=O)[C@H](Cc2ccccc2)NC(=O)[C@H](CCC(N)=O)NC(=O)[C@H]([C@@H](C)O)NC(=O)[C@@H]2CCCN2C(=O)[C@@H]2CCCN2C1=O [3BP-3590, Hex-[Cys(tMeBn(InDOTA-PP))-Pro-Pro-Thr-Gln-Phe-Cys]-Asp-NH2] (Hexanoyl-CPPTQFCD-NH2; linker 1-7 via X13)
- remaining at 24 h, 9.8 µM [2, 9]: 100%
- % intact compound remaining after incubation, Rat plasma [3]: 100% (24 h)
- % intact compound remaining after incubation, Human plasma [1]: 94% (24 h)

Structure (SMILES): CCCCCC(=O)N[C@H]1CSCc2cc(CSCCNC(=O)CN3CCN(CC(=O)O)CCN(CC(=O)O)CCN(CC(=O)O)CC3)cc(c2)CSC[C@@H](C(=O)O)NC(=O)[C@H](Cc2ccccc2)NC(=O)[C@H](CCC(N)=O)NC(=O)[C@H]([C@@H](C)O)NC(=O)[C@@H]2CCCN2C(=O)[C@@H]2CCCN2C1=O [3BP-3624, Hex-[Cys(tMeBn(LuDOTA-AET))-Pro-Pro-Thr-Gln-Phe-Cys]-OH]
- % intact compound remaining after incubation, Rat plasma [3]: 100% (24 h)
- % intact compound remaining after incubation, Human plasma [1]: 100% (24 h)

Structure (SMILES): CCCCCC(=O)N[C@H]1CSCc2cc(CSCCNC(=O)CN3CCN(CC(=O)O)CCN(CC(=O)O)CCN(CC(=O)O)CC3)cc(c2)CSC[C@@H](C(=O)O)NC(=O)[C@H](Cc2ccccc2)NC(=O)[C@H](CCC(N)=O)NC(=O)[C@H]([C@@H](C)O)NC(=O)[C@@H]2CCCN2C(=O)[C@@H]2CCCN2C1=O [3BP-3623, Hex-[Cys(tMeBn(InDOTA-AET))-Pro-Pro-Thr-Gln-Phe-Cys]-OH]
- % intact compound remaining after incubation, Rat plasma [3]: 100% (24 h)
- AUC(0-inf) ([4]; 4 nmol/kg): 0.0077 µM·h
- C0 ([4]; 4 nmol/kg): 17.6 nM
- clearance ([4]; 4 nmol/kg): 8.63 mL/min/kg
- half-life ([4]; 4 nmol/kg): 35 min
- Vd ([4]; 4 nmol/kg, Vss, 4 nmol/kg): 0.36 L/kg
- Vd ([4]; 4 nmol/kg, Vz): 0.44 L/kg
- AUC(0-inf) ([4]; 40 nmol/kg): 0.055 µM·h
- C0 ([4]; 40 nmol/kg): 228 nM
- clearance ([4]; 40 nmol/kg): 12 mL/min/kg
- half-life ([4]; 40 nmol/kg): 30 min
- Vd ([4]; 40 nmol/kg, Vss, 40 nmol/kg): 0.31 L/kg
- Vd ([4]; 40 nmol/kg, Vz): 0.53 L/kg
- AUC(0-inf) ([4]; 400 nmol/kg): 0.532 µM·h
- C0 ([4]; 400 nmol/kg): 2130 nM
- clearance ([4]; 400 nmol/kg): 12.5 mL/min/kg
- half-life ([4]; 400 nmol/kg): 35 min
- Vd ([4]; 400 nmol/kg, Vss, 400 nmol/kg): 0.2 L/kg
- Vd ([4]; 400 nmol/kg, Vz): 0.64 L/kg
- % intact compound remaining after incubation, Human plasma [1]: 100% (24 h)
- AUC(0-inf) ([5]; 40 nmol/kg): 0.074 µM·h
- C0 ([5]; 40 nmol/kg): 127 nM
- clearance ([5]; 40 nmol/kg): 9.02 mL/min/kg
- half-life ([5]; 40 nmol/kg): 45 min
- Vd ([5]; 40 nmol/kg, Vss, 40 nmol/kg): 0.48 L/kg
- Vd ([5]; 40 nmol/kg, Vz): 0.58 L/kg
- AUC(0-inf) ([5]; 400 nmol/kg): 0.738 µM·h
- C0 ([5]; 400 nmol/kg): 1410 nM
- clearance ([5]; 400 nmol/kg): 9.03 mL/min/kg
- half-life ([5]; 400 nmol/kg): 71 min
- Vd ([5]; 400 nmol/kg, Vz): 0.93 L/kg

Structure (SMILES): CCCC[C@H](NC(=O)CCC(=O)NCCCOCCOCCOCCCNC(=O)CN1CCN(CC(=O)O)CCN(CC(=O)O)CCN(CC(=O)O)CC1)C(=O)N[C@H]1CSCc2cccc(c2)CSC[C@@H](C(=O)N[C@@H](CC(=O)O)C(N)=O)NC(=O)[C@H](Cc2ccccc2)NC(=O)[C@H](CCC(=O)O)NC(=O)[C@H]([C@@H](C)O)NC(=O)[C@@H]2CCCN2C(=O)[C@@H]2CCCN2C1=O [3BP-3320, DOTA-Ttds-Nle-[Cys(3MeBn)-Pro-Pro-Thr-Glu-Phe-Cys]-Asp-NH2] ({X12-Suc}-[Nle]CPPTEFCD-NH2; linker 2-8 via mXylylene)
- % intact compound remaining after incubation, Mouse plasma ([2]; 4 h incubation): 75%
- Kd (Human recombinant FAP [6]): < 10 nM
- IC50 (recombinant human PREP): > 1000 nM
- IC50 (Human recombinant FAP [7]; [10]): < 10 nM
- IC50 (Recombinant human DPP4): > 1000 nM
- IC50 [8]: 10 to 79.4 nM

Structure (SMILES): C[C@@H](O)[C@@H]1NC(=O)[C@@H]2CCCN2C(=O)[C@@H]2CCCN2C(=O)CCSCc2cccc(c2)CSC[C@@H](C(=O)N[C@@H](CC(=O)O)C(N)=O)NC(=O)[C@H](Cc2ccccc2)NC(=O)[C@H](CCC(N)=O)NC1=O [3BP-3419, [3MeBn-Spa-Pro-Pro-Thr-Gln-Phe-Cys]-Asp-NH2] ([Mpa]PPTQFCD-NH2; linker 1-7 via mXylylene)
- IC50 (recombinant human PREP): > 1000 nM
- IC50 (Human recombinant FAP [7]; [10]): 100 to 794 nM
- IC50 (Recombinant human DPP4): > 1000 nM
- IC50 [8]: 100 to 794 nM

Structure (SMILES): CCCC[C@H](NC(=O)CCC(=O)NCCCOCCOCCOCCCNC(=O)CN1CCN(CC(=O)O)CCN(CC(=O)O)CCN(CC(=O)O)CC1)C(=O)N[C@H]1CSCc2cccc(c2)CSC[C@@H](C(=O)NCCC(=O)O)NC(=O)[C@H](Cc2ccccc2)NC(=O)[C@H](CCC(N)=O)NC(=O)[C@H]([C@@H](C)O)NC(=O)[C@@H]2CCCN2C(=O)[C@@H]2CCCN2C1=O [3BP-3398, DOTA-Ttds-Nle-[Cys(3MeBn)-Pro-Pro-Thr-Gln-Phe-Cys]-Bal-OH]
- % intact compound remaining after incubation, Human plasma [1]: 99% (24 h)

Structure (SMILES): CCCC[C@H](NC(=O)CCC(=O)NCCCOCCOCCOCCCNC(=O)CN1CCN(CC(=O)O)CCN(CC(=O)O)CCN(CC(=O)O)CC1)C(=O)N[C@H]1CSCc2cccc(c2)CSC[C@@H](C(=O)N[C@@H](CC(=O)O)C(=O)N[C@@H](Cc2c[nH]cn2)C(=O)N[C@@H](Cc2ccccc2)C(=O)N[C@@H](CCCNC(=N)N)C(=O)N[C@@H](CC(=O)O)C(N)=O)NC(=O)[C@H](Cc2ccccc2)NC(=O)[C@H](CCC(=O)O)NC(=O)[C@H]([C@@H](C)O)NC(=O)[C@@H]2CCCN2C(=O)[C@@H]2CCCN2C1=O [3BP-3168, DOTA-Ttds-Nle-[Cys(3MeBn)-Pro-Pro-Thr-Glu-Phe-Cys]-Asp-His-Phe-Arg-Asp-NH2] ({X12-Suc}-[Nle]CPPTEFCDHFRD-NH2; linker 2-8 via mXylylene)
- remaining at 4 h, 9.8 µM ([2]; mouse, plasma, 4 h incubation, read-out: % intact compound remaining after incubation, Mouse plasma): 100%
- Kd (Human recombinant FAP [6]): < 10 nM
- IC50 (recombinant human PREP): > 1000 nM
- IC50 (Human recombinant FAP [7]; pIC50 (highest activity categories), text on Table 9 categories (FACS binding and FAP activity assay)): < 10 nM
- IC50 (Human recombinant FAP [7]; [10]): < 10 nM
- IC50 (Recombinant human DPP4): > 1000 nM
- IC50 [8]: < 10 nM

Structure (SMILES): CCCCCC(=O)N[C@H]1CSCc2cc(cc(CN3CCN(C(=O)CN4CCN(CC(=O)O)CCN(CC(=O)O)CCN(CC(=O)O)CC4)CC3)c2)CSC[C@@H](C(=O)O)NC(=O)[C@H](Cc2ccccc2)NC(=O)[C@H](CCC(N)=O)NC(=O)[C@H]([C@@H](C)O)NC(=O)[C@@H]2CCCN2C(=O)[C@@H]2CCCN2C1=O [3BP-3555, Hex-[Cys(tMeBn(DOTA-PP))-Pro-Pro-Thr-Gln-Phe-Cys]-OH]
- remaining at 24 h, 9.8 µM [2, 9]: 88%
- Kd (Human recombinant FAP [6]): < 10 nM
- IC50 (Human recombinant FAP [7]; [10]): < 10 nM
- IC50 [8]: 10 to 79.4 nM

— US20230212549A1, “COMPOUNDS COMPRISING A […] LIGAND AND USE THEREOF” (priority 2021, published 2023)
